Values quoted from earlier work, collected in US20120064152A1, “Analgesic and Anti-Inflammatory Compositions Comprising Domperidone and Methods of Using Same” (THE BOOTS COMPANY, priority 1996, published 2012).
Read-outs that look alike come from different tables or passages of the source.

Details: oral 100 mg sumatriptan

SMILES: CNS(=O)(=O)Cc1ccc2[nH]cc(CCN(C)C)c2c1 [sumatriptan]
- effectiveness compared with aspirin 900 mg plus 10 mg metoclopramide (initial attacks): as effective as aspirin 900 mg plus 10 mg metoclopramide
- effectiveness compared with aspirin 900 mg plus 10 mg metoclopramide (subsequent attacks): more effective
